Marks after values point to notes of the source that are not given here.
test system: Blumeria graminis f sp. tritici; assay: Test D: wheat powdery mildew, preventive spray on wheat seedlings, visual disease rating; assay type: in vivo; conditions: 250 ppm test suspension (*)
From the text: (§1) General protocol for preparing test suspensions for Tests A-E: the test compounds were first dissolved in acetone in an amount equal to 3% of the final volume and then suspended at the desired concentration (in ppm) in acetone and purified water (50/50 mix by volume) containing 250 ppm of the surfactant Trem® 014 (polyhydric alcohol esters). The resulting test suspensions were then used in Tests A-E. Spraying a 200 ppm test suspension to the point of run-off on the test plants was the equivalent of a rate of 800 g/ha.
The test suspension was sprayed to the point of run-off on wheat seedlings. The following day the seedlings were inoculated with a spore dust of Blumeria graminis f sp. tritici, (also known as Erysiphe graminis f sp. tritici, the causal agent of wheat powdery mildew) and incubated in a growth chamber at 20° C. for 8 days, after which time visual disease ratings were made.
(§2) Results for Tests A-E are given in Table A. In the Table, a rating of 100 indicates 100% disease control and a rating of 0 indicates no disease control (relative to the controls). A dash (-) indicates no test results. All results are for 200 ppm except where followed by an asterisk “*” which indicates a 250 ppm test suspension was used or a double asterisk “**” which indicates a 50 ppm test suspension was used.

Which “Test D disease control rating” value does the source give for CC(=CC(C)C)c1c(C)nn(C)c1Nc1ccc(F)cc1Cl [Compound 31] here?
The value was 48* %.

CC(=O)c1c(C)nn(C)c1Nc1ccc(F)cc1Cl [Compound 32] was tested. Which “Test D disease control rating” value did it give?
The value was 0* %.

C=Cc1c(C)nn(C)c1Oc1ccc(F)cc1Cl [Compound 35] was tested. Which “Test D disease control rating” value did it give?
Its value is 26* %.

Which “Test D disease control rating” value does the source give for Cc1nn(C)c(Oc2ccc(F)cc2Cl)c1C1OCCCO1 [Compound 37] here?
The value was 63* %.

Cc1nn(C)c(Oc2ccc(F)cc2Cl)c1C1OCC(C)(C)CO1 [Compound 38] was tested. Which “Test D disease control rating” value did it give?
The value was 94* %.

How did the “Test D disease control rating” value turn out when C=C(C)c1c(C)nn(C)c1Oc1ccc(F)cc1Cl [Compound 39] was run?
Its value is 13* %.

CC1=NOC(c2c(C)nn(C)c2Oc2ccc(F)cc2Cl)C1 (centres unmarked) [Compound 40] was tested. Which “Test D disease control rating” value did it give?
Its value is 81* %.

Cc1nn(C)c(Oc2ccc(F)cc2Cl)c1C(C)O (centres unmarked) [Compound 41] was tested. Which “Test D disease control rating” value did it give?
Its value is 46* %.

For Cc1nn(C)c(Oc2ccc(F)cc2Cl)c1C=NO [Compound 42], which “Test D disease control rating” value is on record?
The value was 81* %.

Which “Test D disease control rating” value does the source give for Cc1nn(C)c(Oc2ccc(F)cc2Cl)c1C1=NOC(C)(C)C1 [Compound 53] here?
Its value is 90* %.

Which “Test D disease control rating” value does the source give for Cc1nn(C)c(Oc2ccc(F)cc2Cl)c1C1=NOC(C#N)C1 (centres unmarked) [Compound 55] here?
Its value is 73* %.

How did the “Test D disease control rating” value turn out when Cc1nn(C)c(Nc2ccc(F)cc2Cl)c1C1CCOCC1 [Compound 56] was run?
Its value is 99* %.

With Cc1nn(C)c(Nc2ccc(F)cc2)c1C1CCOCC1 [Compound 57] as the compound, how does the “Test D disease control rating” value read?
Its value is 89* %.

Which “Test D disease control rating” value does the source give for Cc1nn(C)c(Nc2ccc(F)cc2F)c1C1=CCOCC1 [Compound 58] here?
Its value is 0* %.

Which “Test D disease control rating” value does the source give for Cc1nn(C)c(Nc2ccc(F)cc2F)c1C1CCOCC1 [Compound 59] here?
Its value is 98* %.

Which “Test D disease control rating” value does the source give for Cc1nn(C)c(Nc2ccc(F)cc2Cl)c1C1=CCC(C)(C)CC1 [Compound 60] here?
The value was 0* %.

How did the “Test D disease control rating” value turn out when Cc1nn(C)c(Nc2ccc(F)cc2Cl)c1C1CCC(C)CC1 (centres unmarked) [Compound 61] was run?
Its value is 97* %.

For Cc1nn(C)c(Nc2ccc(F)cc2Cl)c1C1CCC(C)(C)CC1 [Compound 62], which “Test D disease control rating” value is on record?
The value was 96* %.

test system: Septoria tritici; assay: Test B: wheat leaf blotch, preventive spray on wheat seedlings, visual disease rating; assay type: in vivo; conditions: 250 ppm test suspension (*)
From the text: as §1
(§3) The test suspension was sprayed to the point of run-off on wheat seedlings. The following day the seedlings were inoculated with a spore suspension of Septoria tritici (the causal agent of wheat leaf blotch) and incubated in a saturated atmosphere at 24° C. for 48 h, and then moved to a growth chamber at 20° C. for 19 days, after which time visual disease ratings were made.
as §2

For CC(=CC(C)C)c1c(C)nn(C)c1Nc1ccc(F)cc1Cl [Compound 31], which “Test B disease control rating” value is on record?
The value was 6* %.

How did the “Test B disease control rating” value turn out when C=Cc1c(C)nn(C)c1Oc1ccc(F)cc1Cl [Compound 35] was run?
The value was 0* %.

With Cc1nn(C)c(Oc2ccc(F)cc2Cl)c1C1OCCCO1 [Compound 37] as the compound, how does the “Test B disease control rating” value read?
The value was 5* %.

How did the “Test B disease control rating” value turn out when Cc1nn(C)c(Oc2ccc(F)cc2Cl)c1C1OCC(C)(C)CO1 [Compound 38] was run?
Its value is 93* %.

Which “Test B disease control rating” value does the source give for C=C(C)c1c(C)nn(C)c1Oc1ccc(F)cc1Cl [Compound 39] here?
Its value is 0* %.

For CC1=NOC(c2c(C)nn(C)c2Oc2ccc(F)cc2Cl)C1 (centres unmarked) [Compound 40], which “Test B disease control rating” value is on record?
Its value is 36* %.

Cc1nn(C)c(Oc2ccc(F)cc2Cl)c1C(C)O (centres unmarked) [Compound 41] was tested. Which “Test B disease control rating” value did it give?
The value was 0* %.

Which “Test B disease control rating” value does the source give for Cc1nn(C)c(Oc2ccc(F)cc2Cl)c1C=NO [Compound 42] here?
Its value is 0* %.

Which “Test B disease control rating” value does the source give for Cc1nn(C)c(Oc2ccc(F)cc2Cl)c1C1=NOC(C)(C)C1 [Compound 53] here?
Its value is 2* %.

With Cc1nn(C)c(Oc2ccc(F)cc2Cl)c1C1=NOC(C#N)C1 (centres unmarked) [Compound 55] as the compound, how does the “Test B disease control rating” value read?
The value was 0* %.

Which “Test B disease control rating” value does the source give for Cc1nn(C)c(Nc2ccc(F)cc2Cl)c1C1CCOCC1 [Compound 56] here?
Its value is 100* %.

With Cc1nn(C)c(Nc2ccc(F)cc2)c1C1CCOCC1 [Compound 57] as the compound, how does the “Test B disease control rating” value read?
Its value is 44* %.

With Cc1nn(C)c(Nc2ccc(F)cc2F)c1C1=CCOCC1 [Compound 58] as the compound, how does the “Test B disease control rating” value read?
The value was 25* %.

Which “Test B disease control rating” value does the source give for Cc1nn(C)c(Nc2ccc(F)cc2F)c1C1CCOCC1 [Compound 59] here?
Its value is 92* %.

Cc1nn(C)c(Nc2ccc(F)cc2Cl)c1C1=CCC(C)(C)CC1 [Compound 60] was tested. Which “Test B disease control rating” value did it give?
The value was 16* %.

How did the “Test B disease control rating” value turn out when Cc1nn(C)c(Nc2ccc(F)cc2Cl)c1C1CCC(C)CC1 (centres unmarked) [Compound 61] was run?
The value was 53* %.

For Cc1nn(C)c(Nc2ccc(F)cc2Cl)c1C1CCC(C)(C)CC1 [Compound 62], which “Test B disease control rating” value is on record?
The value was 9* %.

test system: Botrytis cinerea; assay: Test C: tomato Botrytis, preventive spray on tomato seedlings, visual disease rating; assay type: in vivo; conditions: 250 ppm test suspension (*)
From the text: as §1
as §3, with “tomato” for “wheat”, “Botrytis cinerea” for “Septoria tritici”, “tomato Botrytis)” for “wheat leaf blotch)”, “20°” for “24°”, “24°” for “20°”, “3” for “19”
as §2

For CC(=CC(C)C)c1c(C)nn(C)c1Nc1ccc(F)cc1Cl [Compound 31], which “Test C disease control rating” value is on record?
Its value is 0* %.

How did the “Test C disease control rating” value turn out when CC(=O)c1c(C)nn(C)c1Nc1ccc(F)cc1Cl [Compound 32] was run?
The value was 56* %.

C=Cc1c(C)nn(C)c1Oc1ccc(F)cc1Cl [Compound 35] was tested. Which “Test C disease control rating” value did it give?
Its value is 0* %.

With Cc1nn(C)c(Oc2ccc(F)cc2Cl)c1C1OCCCO1 [Compound 37] as the compound, how does the “Test C disease control rating” value read?
Its value is 0* %.

For Cc1nn(C)c(Oc2ccc(F)cc2Cl)c1C1OCC(C)(C)CO1 [Compound 38], which “Test C disease control rating” value is on record?
The value was 0* %.

C=C(C)c1c(C)nn(C)c1Oc1ccc(F)cc1Cl [Compound 39] was tested. Which “Test C disease control rating” value did it give?
The value was 0* %.

With CC1=NOC(c2c(C)nn(C)c2Oc2ccc(F)cc2Cl)C1 (centres unmarked) [Compound 40] as the compound, how does the “Test C disease control rating” value read?
Its value is 33* %.

Cc1nn(C)c(Oc2ccc(F)cc2Cl)c1C(C)O (centres unmarked) [Compound 41] was tested. Which “Test C disease control rating” value did it give?
Its value is 0* %.

Which “Test C disease control rating” value does the source give for Cc1nn(C)c(Oc2ccc(F)cc2Cl)c1C=NO [Compound 42] here?
Its value is 7* %.

How did the “Test C disease control rating” value turn out when Cc1nn(C)c(Oc2ccc(F)cc2Cl)c1C1=NOC(C)(C)C1 [Compound 53] was run?
The value was 0* %.

Which “Test C disease control rating” value does the source give for Cc1nn(C)c(Oc2ccc(F)cc2Cl)c1C1=NOC(C#N)C1 (centres unmarked) [Compound 55] here?
The value was 0* %.

With Cc1nn(C)c(Nc2ccc(F)cc2Cl)c1C1CCOCC1 [Compound 56] as the compound, how does the “Test C disease control rating” value read?
The value was 100* %.

With Cc1nn(C)c(Nc2ccc(F)cc2)c1C1CCOCC1 [Compound 57] as the compound, how does the “Test C disease control rating” value read?
The value was 0* %.

How did the “Test C disease control rating” value turn out when Cc1nn(C)c(Nc2ccc(F)cc2F)c1C1=CCOCC1 [Compound 58] was run?
The value was 0* %.

For Cc1nn(C)c(Nc2ccc(F)cc2F)c1C1CCOCC1 [Compound 59], which “Test C disease control rating” value is on record?
The value was 24* %.

Which “Test C disease control rating” value does the source give for Cc1nn(C)c(Nc2ccc(F)cc2Cl)c1C1=CCC(C)(C)CC1 [Compound 60] here?
Its value is 0* %.

With Cc1nn(C)c(Nc2ccc(F)cc2Cl)c1C1CCC(C)CC1 (centres unmarked) [Compound 61] as the compound, how does the “Test C disease control rating” value read?
The value was 0* %.

For Cc1nn(C)c(Nc2ccc(F)cc2Cl)c1C1CCC(C)(C)CC1 [Compound 62], which “Test C disease control rating” value is on record?
Its value is 0* %.

test system: Puccinia recondita f. sp. tritici; assay: Test A: wheat leaf rust, preventive spray on wheat seedlings, visual disease rating; assay type: in vivo; conditions: 250 ppm test suspension (*)
From the text: as §1
as §3, with “Puccinia recondita f. sp.” for “Septoria”, “rust)” for “blotch)”, “20°” for “24°”, “24” for “48”, “7” for “19”
as §2

With CC(=CC(C)C)c1c(C)nn(C)c1Nc1ccc(F)cc1Cl [Compound 31] as the compound, how does the “Test A disease control rating” value read?
Its value is 55* %.

For CC(=O)c1c(C)nn(C)c1Nc1ccc(F)cc1Cl [Compound 32], which “Test A disease control rating” value is on record?
Its value is 19* %.

Which “Test A disease control rating” value does the source give for C=Cc1c(C)nn(C)c1Oc1ccc(F)cc1Cl [Compound 35] here?
Its value is 8* %.

How did the “Test A disease control rating” value turn out when Cc1nn(C)c(Oc2ccc(F)cc2Cl)c1C1OCCCO1 [Compound 37] was run?
Its value is 52* %.

How did the “Test A disease control rating” value turn out when Cc1nn(C)c(Oc2ccc(F)cc2Cl)c1C1OCC(C)(C)CO1 [Compound 38] was run?
The value was 52* %.

For C=C(C)c1c(C)nn(C)c1Oc1ccc(F)cc1Cl [Compound 39], which “Test A disease control rating” value is on record?
The value was 15* %.

CC1=NOC(c2c(C)nn(C)c2Oc2ccc(F)cc2Cl)C1 (centres unmarked) [Compound 40] was tested. Which “Test A disease control rating” value did it give?
Its value is 30* %.

With Cc1nn(C)c(Oc2ccc(F)cc2Cl)c1C(C)O (centres unmarked) [Compound 41] as the compound, how does the “Test A disease control rating” value read?
Its value is 0* %.

Which “Test A disease control rating” value does the source give for Cc1nn(C)c(Oc2ccc(F)cc2Cl)c1C=NO [Compound 42] here?
The value was 9* %.

Cc1nn(C)c(Oc2ccc(F)cc2Cl)c1C1=NOC(C)(C)C1 [Compound 53] was tested. Which “Test A disease control rating” value did it give?
Its value is 0* %.

Which “Test A disease control rating” value does the source give for Cc1nn(C)c(Oc2ccc(F)cc2Cl)c1C1=NOC(C#N)C1 (centres unmarked) [Compound 55] here?
Its value is 0* %.

With Cc1nn(C)c(Nc2ccc(F)cc2Cl)c1C1CCOCC1 [Compound 56] as the compound, how does the “Test A disease control rating” value read?
Its value is 55* %.

For Cc1nn(C)c(Nc2ccc(F)cc2)c1C1CCOCC1 [Compound 57], which “Test A disease control rating” value is on record?
The value was 0* %.

With Cc1nn(C)c(Nc2ccc(F)cc2F)c1C1=CCOCC1 [Compound 58] as the compound, how does the “Test A disease control rating” value read?
Its value is 0* %.

For Cc1nn(C)c(Nc2ccc(F)cc2F)c1C1CCOCC1 [Compound 59], which “Test A disease control rating” value is on record?
The value was 41* %.

Which “Test A disease control rating” value does the source give for Cc1nn(C)c(Nc2ccc(F)cc2Cl)c1C1=CCC(C)(C)CC1 [Compound 60] here?
Its value is 19* %.

How did the “Test A disease control rating” value turn out when Cc1nn(C)c(Nc2ccc(F)cc2Cl)c1C1CCC(C)CC1 (centres unmarked) [Compound 61] was run?
Its value is 0* %.

Which “Test A disease control rating” value does the source give for Cc1nn(C)c(Nc2ccc(F)cc2Cl)c1C1CCC(C)(C)CC1 [Compound 62] here?
Its value is 68* %.

Reference: patent US20180042234A1, “FUNGICIDAL PYRAZOLES” (E I DU PONT DE NEMOURS AND COMPANY, priority 2015, published 2018)
